Results as given in PubChem BioAssay AID179 (DTP/NCI, 2004).
Calls of active or inactive are those of the source.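 The calls were made as follows: active = compounds giving half or more protection of infected cells from virus-caused growth loss, again on retest; inactive = the rest.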

System: CEM cells HIV-1 protection, formazan growth assay
Assay: NCI AIDS Antiviral Assay
Settings: for IC50: measured here: growth of uninfected CEM cells
Summary of the method: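 Five concentrations of each compound were applied to infected and uninfected human CEM cells. Protection from HIV-1 was judged from growth measured with a soluble formazan assay.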

SMILES | EC50 [µM] | IC50 [µM] | outcome
O=c1c2cc(-c3ccccc3)sc2nc2n1N=C(c1ccccc1)CS2 | > 200 | > 200 | –
c1ccc(C(NC2CCCCC2NCCNC2CCCCC2NC(c2ccccc2)(c2ccccc2)c2ccccc2)(c2ccccc2)c2ccccc2)cc1 (centres undefined) | > 200 | 6.17 | –
CCCCCCCCOCC(COC(=O)CCCCCCC)OC(=O)CCCCCCC (centres undefined) | > 151 | 37.2 | –
Cc1cccc(C)c1NC(=O)CCCC(=O)C(C#N)c1ccccc1 (centres undefined) | > 741 | > 741 | –
O=C(NCCCCCCCCNC(=O)c1cc(O)c(O)c(O)c1)c1cc(O)c(O)c(O)c1 | > 100 | 13.8 | –
c1ccc2c(c1)N=C(c1cccc3ccccc13)CC(c1cccc3ccccc13)S2 (centres undefined) | > 2.51 | > 2.51 | –
CC1(C)CC(=O)c2c(nc3c(ccc4ccccc43)c2-c2ccc(NC(=O)CCCCCCCCC(=O)Nc3ccc(-c4c5c(nc6c4ccc4ccccc46)CC(C)(C)CC5=O)cc3)cc2)C1 | > 100 | > 100 | –
CCOC(=O)c1s/c(=N\Nc2nc3ccccc3cc2C2OCCO2)n(Cc2ccccc2)c1C | > 5.5 | > 5.5 | –
COc1ccc(NC(=S)N/N=C(/C)c2ccccn2)cc1 | > 0.2 | 0.115 | –
CCCCCC/C=C\CCCCCCCCCc1cccc(OC)c1O | > 200 | > 200 | –
O/N=C1/C(=C/c2ccc(Cl)cc2)CCCC1C(NO)c1ccc(Cl)cc1 (centres undefined) | > 13.5 | > 13.5 | –
Cn1nc(Br)c(=O)n(C(c2ccccc2)c2ccccc2)c1=O | > 69.2 | 22.9 | –
COc1ccc(S(=O)(=O)N(C)CC(=O)O)cc1 | – | – | inactive
Clc1ccc(CSc2ccc3nncc(SCc4ccc(Cl)cc4Cl)c3c2)c(Cl)c1 | > 29.5 | > 29.5 | –
CCCCOC(=O)OC1CCC2(C)CC3C=CC2(OO3)C1(C)C (centres undefined) | > 20 | 4.27 | –
COc1ccc(-c2sc(/N=C/c3ccc(N(C)CCC#N)cc3)c(C#N)c2C)cc1OC | > 501 | 339 | –
COc1ccc2nc3cc(Cl)ccc3c(Sc3ccc([N+](=O)[O-])cc3C)c2c1 | > 12.6 | > 12.6 | –
Clc1cc(Cl)c(SSc2cc(Cl)c(Cl)cc2Cl)cc1Cl | > 200 | > 200 | –
O=C1CSC(c2ccccc2)N1c1ccc(-n2c(-c3ccccc3)nc3ccccc3c2=O)cc1 (centres undefined) | > 200 | 35.5 | –
CC(C)(C)[Si](C)(C)OCC1OC(n2ccc(=O)[nH]c2=O)C(O[Si](C)(C)C(C)(C)C)[C@@]12N[C@H](C(N)=O)CS2 (some centres undefined) | > 200 | 8.91 | –
Cc1ccc(NNc2cc(=O)[nH]c(=O)[nH]2)cc1Cl | > 200 | 4.68 | –
CC(C)N1CCCOC(c2ccc([N+](=O)[O-])cc2)O1 (centres undefined) | > 200 | 112 | –

SMILES | EC50 [µM] | IC50 [µM] | outcome
C/C=C/CC(C)[C@@H](O)[C@H](NC)C(=O)O (some centres undefined) | – | – | inactive
CN(C)CC1C(O)C2CCN1CC2 (centres undefined) | – | – | inactive
COc1cc2c(cc1OC)C1c3ccccc3CCN1CC2 (centres undefined) | > 200 | 93.3 | –
CC(C)(C)OC(=O)N1CCCC1C(=O)N1CCCC1C(=O)Oc1ccccc1 (centres undefined) | > 67.6 | > 67.6 | –
CCOC(=O)c1c(C)[nH]c(C(=O)C(N=O)C(=O)OCC)c1C (centres undefined) | > 200 | > 200 | –
COc1ccc(C(C2=C(O)COC2=O)c2cc3c(cc2O)OCO3)cc1OC (centres undefined) | > 200 | 132 | –
Cc1ccc2c(c1)C(=O)C1(Cc3ccccc3C1=O)C2 (centres undefined) | > 200 | > 200 | –
CCOC(=O)c1cccc(=O)c(C(=O)OCC)c1 | – | – | inactive
CC1=C2N3C[C@@H](n4c(=O)n(C)c(=O)n43)C23CCC1n1c(=O)n(C)c(=O)n13 | > 72.4 | > 72.4 | –
S=P1(c2ccccc2)Nc2ccc(Cl)cc2N1 (centres undefined) | > 468 | 9.12 | –
NS(=O)(=O)c1ccc(NC(=O)/C=C/C(=O)O)cc1 | > 200 | > 200 | –
Cc1cc2c(cc1C)[n+](=O)c(C(=O)CC(=O)C(=O)Nc1c(C(C)C)cccc1C(C)C)c(C)n2[O-] | > 7.94 | > 7.94 | –
O=c1[nH]c2cc3[nH]c(=O)c(=O)[nH]c3cc2[nH]c1=O | > 200 | > 200 | –
CC(=O)NC1=C(C)C(=O)c2c(nc3n2CCC3O)C1=N (centres undefined) | > 200 | 24 | –
S=c1nn[nH]n1-c1ccccc1.[Cd] | > 42.7 | 32.4 | –
CC1=C(C(=O)Nc2ccc(Cl)c(Cl)c2)C(c2ccc([N+](=O)[O-])cc2)C(C(=O)Nc2ccc(Cl)c(Cl)c2)=C(C)N1 | > 8.71 | 5.62 | –
C=CCc1cc(OC)c2c(c1)C(OC)CC(c1ccc(OC)c(OC)c1)O2 (centres undefined) | > 251 | > 251 | –
O=Nc1c(-c2ccccc2)nc2cc(-c3ccccc3)[nH]n12 | > 18.2 | > 18.2 | –
O=C(c1ccccc1)N(CCCCNC(=O)C(F)(F)F)CCCNC(=O)C(F)(F)F | > 200 | > 200 | –
CCCC[As](CCCC)SC1CCC2(C)C(=CCC3C4CCC(=O)C4(C)CCC32)C1 (centres undefined) | > 46.8 | 15.8 | –
CCCCCC(C(O)C#N)C(O)(C(F)(F)F)C(F)(F)F (centres undefined) | > 200 | 52.5 | –
CC(C)C1CCC(=O)CC1CCCCC1CC(=O)CC1O[Si](C)(C)C(C)(C)C (centres undefined) | > 200 | 7.24 | –

SMILES | EC50 [µM] | IC50 [µM] | outcome
Clc1ccc(OCc2nc3ccccc3[nH]2)cc1 | > 200 | 162 | –
NC(=O)c1ccc([Se][Se]c2ccc(C(N)=O)cc2)cc1 | > 13.2 | 6.92 | –
COc1ccc(OC)c2c(=S)c3ccccc3[nH]c12 | – | – | inactive
O=C1OC(C2Cc3cc4c(cc3C2=O)CCC4)c2ccccc21 (centres undefined) | > 200 | 33.9 | –
COC(=O)c1sc(=O)n(-c2ccccc2)c1SCc1ccccc1 | > 38 | > 38 | –
CCOC(=O)c1ccc(NC(=O)Nc2ncccc2C)cc1 | > 200 | > 200 | –
Cc1ccc(S(=O)(=O)OC2CCN(C)CC2)cc1 | > 200 | > 200 | –
COc1cc(C2c3cc4c(cc3OC(Nc3ccccc3)C2C)OCO4)cc(OC)c1OC (centres undefined) | > 200 | 0.275 | –
N#Cc1c(=O)c2ccccc2n2ccccc12 | > 100 | > 100 | –
CCP(CC)(c1ccccc1)=c1c(=O)c(Cl)c(Cl)c(=O)c1=O | > 200 | 27.5 | –
O=C1C(=Cc2cccc(Cl)c2)N=C(c2ccccc2)N1n1c(-c2ccccc2)nc2ccccc2c1=O | > 200 | 35.5 | –
CCOC(=O)c1cnc2c(ccc3ncccc32)c1Cl | > 66.1 | 34.7 | –
CCN(CC)CC(=O)Nc1cccc(C(=O)OC(C)C)c1 | > 200 | > 200 | –
COC(=O)c1c(C)cccc1CC1Cc2c(C)cccc2C1=O (centres undefined) | > 200 | 41.7 | –
Cc1ccc2c(c1)C(=C(C#N)C#N)CCCS2(=O)=O | > 200 | > 200 | –
CC(C)(C)c1cc(C(O)(C(=O)O)C(=O)O)cc(C(C)(C)C)c1O | > 200 | > 200 | –
COc1ccc(C[n+]2cccc(O)c2)cc1 | > 200 | 112 | –
COc1c(Cc2ccccc2O)c(O)c(Cc2cc(Cc3ccccc3O)ccc2O)c(O)c1C(=O)CCc1ccccc1 | > 60.3 | 21.4 | –
O=C(CSc1nnc(Cc2ccccc2)o1)Nc1ccc([N+](=O)[O-])cc1 | > 97.7 | 95.5 | –
C/C(=N\Nc1ccc2ccccc2n1)c1ccccc1O | > 200 | 6.46 | –
CON(C)C(=O)C(C)NC(=O)OC(C)(C)C (centres undefined) | > 155 | > 155 | –
OCCCSCCCCSCCCO | > 41.7 | > 41.7 | –

SMILES | EC50 [µM] | IC50 [µM] | outcome
ON=C1/C(=N\O)CCC/C1=N/O | > 1050 | 19.1 | –
COC(=O)C(=O)C(C(=O)C(=O)Nc1cc(C)ccc1C)c1nc2ccc(C(=O)c3ccccc3)cc2[nH]c1=O (centres undefined) | – | – | inactive
Cc1ccc([N+](=O)[O-])cc1NC(=O)Nc1onc(C)c1C | > 200 | 9.77 | –
CCOC(=O)C(=Cc1ccc(-c2ccccc2)cc1)C(=O)OCC | > 16.2 | 10.5 | –
CCCCCCCCCCCCCCCCCCSCC(COP(=O)(O)OP(=O)(O)O)OC(=O)CCCCCCCCCCCCCCC (centres undefined) | > 0.891 | > 0.891 | –
NC(=O)c1ncn(CC2(CO)CCC2)n1 | > 200 | > 200 | –
Cc1c2c(n(CCc3ccc(Cl)cc3)c1C)NC(c1ccccc1)C(C#N)S2(=O)=O (centres undefined) | > 200 | 8.91 | –
CCOC(=O)C(C)c1nc2cc(C(F)(F)F)ccc2[nH]c1=O (centres undefined) | > 200 | 81.3 | –
CCOC(=O)C(=CC[C@@H]1N[C@H](C(N)=O)Cc2c1[nH]c1ccccc21)C(=O)OCC | > 33.9 | > 33.9 | –
c1ccc2c(c1)N=c1ccccc1=P21c2ccccc2Nc2ccccc21 | > 2 | 0.214 | –
O=C(NC12CC3CC(CC(C3)C1)C2)C(=O)c1c[nH]c2ccc([N+](=O)[O-])cc12 | > 200 | 30.2 | –
CSC1=Nc2ccccc2SC(c2ccccc2)C1c1ccccc1 (centres undefined) | > 49 | 35.5 | –
CCCCCCCCCCCCC1C(=O)NCCNCCCNCCNC1=O | > 200 | 10 | –
CC1N(O)C(c2ccccc2)C(c2ccccc2)=[N+]1[O-] (centres undefined) | > 200 | > 200 | –
CN(C)CC(CO)(CN(C)C)CN(C)C | > 200 | > 200 | –
Cc1ccc(NC(=O)C(=O)C(C#N)c2nc(-c3ccc(-c4ccccc4)cc3)cs2)c(C)c1 (centres undefined) | > 66.1 | > 66.1 | –
O=c1[nH][nH]c(=O)c2c1[nH]c(=S)n2Cc1ccccc1 | > 912 | > 912 | –
CCCCCC1CC2=C(C(=O)OC2=O)C(O)C(O)(CCCC)CC2=C1C(=O)OC2=O (centres undefined) | > 85.1 | > 85.1 | –
C=C1C(=O)O[C@@H]2C1C(OC(C)CCC)[C@@H](O)[C@@H](C)C(O)C1O[C@]1(C)[C@H]2O (some centres undefined) | – | – | inactive
CNC(=S)N/N=C(\C)c1cc(OC)c(OC)cc1O | > 200 | > 200 | –
C[C@H]1[C@H]2CC[C@H]3[C@@H]4CC(=O)[C@]56C[C@@H]5CC[C@]6(C)[C@H]4CC[C@]23CN1C | > 91.2 | > 91.2 | –
CCOC(=O)CCC(NC(=O)c1ccc(Oc2nc3ccccc3nc2C(=O)OCC)cc1)C(=O)OCC (centres undefined) | > 200 | > 200 | –
